Data from the kinase profiling compilation of Christmann-Franck et al. (2016).

Legend:
Assay in all cases: radiometric filter-binding kinase assay
MAPK13 (human) = MAPK13 (human) (UniProt O15264); conditions: ATP 5 µM
MKNK2 (human) = MKNK2 (human) (UniProt Q9HBH9); conditions: ATP 50 µM
ROCK2 (human) = ROCK2 (human) (UniProt O75116); conditions: ATP 20 µM
MAPKAPK5 (human) = MAPKAPK5 (human) (UniProt Q8IW41); conditions: ATP 20 µM
MAPKAPK2 (human) = MAPKAPK2 (human) (UniProt P49137); conditions: ATP 20 µM
DYRK2 (human) = DYRK2 (human) (UniProt Q92630); conditions: ATP 50 µM
DYRK2 (human), sequence (Q92630 whole entry, looked up): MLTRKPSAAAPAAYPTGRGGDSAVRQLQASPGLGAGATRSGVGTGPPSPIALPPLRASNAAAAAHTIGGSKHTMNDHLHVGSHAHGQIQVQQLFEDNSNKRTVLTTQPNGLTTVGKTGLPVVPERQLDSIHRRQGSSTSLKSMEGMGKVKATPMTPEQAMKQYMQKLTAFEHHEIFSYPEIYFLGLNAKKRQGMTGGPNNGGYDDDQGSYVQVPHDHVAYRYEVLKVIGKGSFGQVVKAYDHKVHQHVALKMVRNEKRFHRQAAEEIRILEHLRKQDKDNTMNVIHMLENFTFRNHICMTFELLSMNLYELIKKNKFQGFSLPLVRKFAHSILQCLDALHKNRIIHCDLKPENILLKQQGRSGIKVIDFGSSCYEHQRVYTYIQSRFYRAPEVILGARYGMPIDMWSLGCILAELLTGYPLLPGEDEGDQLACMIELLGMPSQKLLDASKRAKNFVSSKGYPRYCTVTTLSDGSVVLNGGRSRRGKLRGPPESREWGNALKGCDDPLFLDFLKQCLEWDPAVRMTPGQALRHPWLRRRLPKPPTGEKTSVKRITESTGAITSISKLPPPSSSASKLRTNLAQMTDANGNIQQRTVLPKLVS

MELK (human) = MELK (human) (UniProt Q14680); conditions: ATP 50 µM
CSNK1D (human) = CSNK1D (human) (UniProt P48730); conditions: ATP 20 µM
RPS6KA1 KD1 KD2 (human) = RPS6KA1 KD1 KD2 (human) (UniProt Q15418); conditions: ATP 50 µM
RPS6KA1 KD1 KD2 (human), sequence (Q15418 whole entry, looked up): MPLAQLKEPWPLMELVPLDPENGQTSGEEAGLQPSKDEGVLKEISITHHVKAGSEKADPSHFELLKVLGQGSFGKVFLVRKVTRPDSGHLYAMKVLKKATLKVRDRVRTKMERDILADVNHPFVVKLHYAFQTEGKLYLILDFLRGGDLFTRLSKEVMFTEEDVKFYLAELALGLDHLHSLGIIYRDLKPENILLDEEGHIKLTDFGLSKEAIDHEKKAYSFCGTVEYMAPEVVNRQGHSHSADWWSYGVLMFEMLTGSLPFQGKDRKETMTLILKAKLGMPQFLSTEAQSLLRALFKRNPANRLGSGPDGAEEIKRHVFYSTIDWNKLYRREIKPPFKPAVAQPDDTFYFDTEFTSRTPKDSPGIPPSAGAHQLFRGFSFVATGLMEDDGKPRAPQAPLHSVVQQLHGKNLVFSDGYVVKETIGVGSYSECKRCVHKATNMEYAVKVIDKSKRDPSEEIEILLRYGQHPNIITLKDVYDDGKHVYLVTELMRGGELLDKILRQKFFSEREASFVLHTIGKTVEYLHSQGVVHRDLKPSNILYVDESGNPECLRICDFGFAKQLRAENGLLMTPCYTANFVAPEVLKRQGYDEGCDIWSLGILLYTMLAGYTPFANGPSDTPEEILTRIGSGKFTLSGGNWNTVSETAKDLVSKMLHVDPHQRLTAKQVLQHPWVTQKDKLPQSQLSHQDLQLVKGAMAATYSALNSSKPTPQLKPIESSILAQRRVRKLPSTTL

RPS6KA3 KD1 KD2 (human) = RPS6KA3 KD1 KD2 (human) (UniProt P51812); conditions: ATP 50 µM
MARK3 (human) = MARK3 (human) (UniProt P27448); conditions: ATP 5 µM
AURKC (human) = AURKC (human) (UniProt Q9UQB9); conditions: ATP 5 µM
AURKC (human), sequence (Q9UQB9 whole entry, looked up): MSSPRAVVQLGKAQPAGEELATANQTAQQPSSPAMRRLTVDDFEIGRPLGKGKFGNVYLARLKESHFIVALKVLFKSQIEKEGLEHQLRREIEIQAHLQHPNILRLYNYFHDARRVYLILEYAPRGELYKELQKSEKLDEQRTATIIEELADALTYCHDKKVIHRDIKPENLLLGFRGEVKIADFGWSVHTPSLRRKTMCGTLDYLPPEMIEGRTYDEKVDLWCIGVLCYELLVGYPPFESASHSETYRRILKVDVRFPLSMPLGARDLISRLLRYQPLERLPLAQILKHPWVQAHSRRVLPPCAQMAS

LCK (mouse) = conditions: ATP 50 µM, accession and sequence are those of the human protein
DYRK1A (human) = DYRK1A (human) (UniProt Q13627); conditions: ATP 50 µM
PAK7 (human) = PAK7 (human) (UniProt Q9P286); conditions: ATP 20 µM
PAK7 (human), sequence (Q9P286 whole entry, looked up): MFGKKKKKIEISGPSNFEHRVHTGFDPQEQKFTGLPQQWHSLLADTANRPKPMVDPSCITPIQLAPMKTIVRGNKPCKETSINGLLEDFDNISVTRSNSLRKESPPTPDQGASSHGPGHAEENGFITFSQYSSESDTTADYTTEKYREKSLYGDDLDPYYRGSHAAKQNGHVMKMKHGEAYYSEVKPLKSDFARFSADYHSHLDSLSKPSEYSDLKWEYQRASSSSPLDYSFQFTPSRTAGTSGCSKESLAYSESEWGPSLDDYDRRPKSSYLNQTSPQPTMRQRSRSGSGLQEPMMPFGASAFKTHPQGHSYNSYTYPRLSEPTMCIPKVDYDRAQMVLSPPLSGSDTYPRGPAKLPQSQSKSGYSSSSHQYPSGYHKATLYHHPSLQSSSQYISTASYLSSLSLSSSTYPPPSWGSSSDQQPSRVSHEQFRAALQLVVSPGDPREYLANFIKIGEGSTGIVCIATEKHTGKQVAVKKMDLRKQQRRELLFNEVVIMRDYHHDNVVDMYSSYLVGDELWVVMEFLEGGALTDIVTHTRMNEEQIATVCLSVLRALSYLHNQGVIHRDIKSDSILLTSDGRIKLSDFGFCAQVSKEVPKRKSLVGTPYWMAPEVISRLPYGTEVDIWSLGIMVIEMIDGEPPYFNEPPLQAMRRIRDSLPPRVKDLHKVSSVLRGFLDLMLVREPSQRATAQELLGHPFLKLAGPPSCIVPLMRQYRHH

PRKAA1 or PRKAA2 (rat) = conditions: accession and sequence are those of the human protein
NEK7 (human) = NEK7 (human) (UniProt Q8TDX7); conditions: ATP 20 µM
NEK7 (human), sequence (Q8TDX7 whole entry, looked up): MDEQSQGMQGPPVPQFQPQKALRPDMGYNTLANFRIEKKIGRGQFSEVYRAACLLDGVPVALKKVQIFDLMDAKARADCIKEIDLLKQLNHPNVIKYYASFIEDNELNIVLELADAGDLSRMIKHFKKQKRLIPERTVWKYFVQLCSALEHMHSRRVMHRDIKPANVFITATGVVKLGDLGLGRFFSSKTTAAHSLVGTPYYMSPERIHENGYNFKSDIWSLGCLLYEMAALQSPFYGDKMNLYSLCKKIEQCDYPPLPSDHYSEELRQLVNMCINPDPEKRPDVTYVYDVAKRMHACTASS

MAP2K1 (human) = MAP2K1 (human) (UniProt Q02750); conditions: ATP 5 µM
MAP2K1 (human), sequence (Q02750 whole entry, looked up): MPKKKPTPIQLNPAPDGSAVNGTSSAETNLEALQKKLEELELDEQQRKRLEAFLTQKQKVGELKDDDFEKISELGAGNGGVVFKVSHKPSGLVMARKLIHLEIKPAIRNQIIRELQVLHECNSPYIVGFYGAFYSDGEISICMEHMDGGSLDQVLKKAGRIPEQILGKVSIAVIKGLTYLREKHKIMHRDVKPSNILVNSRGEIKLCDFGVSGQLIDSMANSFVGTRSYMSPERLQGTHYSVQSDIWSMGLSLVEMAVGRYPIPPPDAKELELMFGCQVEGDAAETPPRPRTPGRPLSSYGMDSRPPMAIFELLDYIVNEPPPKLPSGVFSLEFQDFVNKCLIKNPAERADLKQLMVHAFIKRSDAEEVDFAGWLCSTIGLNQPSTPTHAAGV

CaMK1 (human) = CaMK1 (human) (UniProt Q14012); conditions: ATP 50 µM
CSK (human) = CSK (human) (UniProt P41240); conditions: ATP 20 µM
IKBKB (human) = IKBKB (human) (UniProt O14920); conditions: ATP 5 µM
MAPK10 (human) = MAPK10 (human) (UniProt P53779); conditions: ATP 50 µM
PLK1 (human) = PLK1 (human) (UniProt P53350); conditions: ATP 5 µM
PDPK1 (human) = PDPK1 (human) (UniProt O15530)
PDPK1 (human), sequence (O15530 whole entry, looked up): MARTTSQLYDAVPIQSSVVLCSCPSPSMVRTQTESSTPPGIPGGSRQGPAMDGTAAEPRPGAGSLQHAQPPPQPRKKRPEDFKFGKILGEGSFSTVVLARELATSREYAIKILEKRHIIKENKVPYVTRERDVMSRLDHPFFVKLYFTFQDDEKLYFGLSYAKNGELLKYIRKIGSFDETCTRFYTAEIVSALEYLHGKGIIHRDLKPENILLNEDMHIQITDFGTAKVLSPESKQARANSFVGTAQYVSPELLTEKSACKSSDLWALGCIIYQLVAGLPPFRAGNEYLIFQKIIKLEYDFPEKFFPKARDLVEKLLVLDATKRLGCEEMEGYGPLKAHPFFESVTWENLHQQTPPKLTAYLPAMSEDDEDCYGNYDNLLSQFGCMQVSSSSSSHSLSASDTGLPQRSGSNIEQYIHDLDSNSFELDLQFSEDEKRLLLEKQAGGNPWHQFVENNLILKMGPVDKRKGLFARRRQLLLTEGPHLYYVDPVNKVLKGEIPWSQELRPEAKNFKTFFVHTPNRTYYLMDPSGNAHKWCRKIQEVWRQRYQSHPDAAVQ

MAPK9 (human) = MAPK9 (human) (UniProt P45984); conditions: ATP 20 µM
CHEK2 (human) = CHEK2 (human) (UniProt O96017); conditions: ATP 20 µM
NEK6 (human) = NEK6 (human) (UniProt Q9HC98); conditions: ATP 50 µM
PRKCG (human) = PRKCG (human) (UniProt P05129); conditions: ATP 5 µM
PIM2 (human) = PIM2 (human) (UniProt Q9P1W9); conditions: ATP 5 µM
PAK6 (human) = PAK6 (human) (UniProt Q9NQU5); conditions: ATP 20 µM
STK3 (human) = STK3 (human) (UniProt Q13188); conditions: ATP 20 µM
PIM3 (human) = PIM3 (human) (UniProt Q86V86); conditions: ATP 20 µM
MAPK15 (human) = MAPK15 (human) (UniProt Q8TD08); conditions: ATP 5 µM
MAPK15 (human), sequence (Q8TD08 whole entry, looked up): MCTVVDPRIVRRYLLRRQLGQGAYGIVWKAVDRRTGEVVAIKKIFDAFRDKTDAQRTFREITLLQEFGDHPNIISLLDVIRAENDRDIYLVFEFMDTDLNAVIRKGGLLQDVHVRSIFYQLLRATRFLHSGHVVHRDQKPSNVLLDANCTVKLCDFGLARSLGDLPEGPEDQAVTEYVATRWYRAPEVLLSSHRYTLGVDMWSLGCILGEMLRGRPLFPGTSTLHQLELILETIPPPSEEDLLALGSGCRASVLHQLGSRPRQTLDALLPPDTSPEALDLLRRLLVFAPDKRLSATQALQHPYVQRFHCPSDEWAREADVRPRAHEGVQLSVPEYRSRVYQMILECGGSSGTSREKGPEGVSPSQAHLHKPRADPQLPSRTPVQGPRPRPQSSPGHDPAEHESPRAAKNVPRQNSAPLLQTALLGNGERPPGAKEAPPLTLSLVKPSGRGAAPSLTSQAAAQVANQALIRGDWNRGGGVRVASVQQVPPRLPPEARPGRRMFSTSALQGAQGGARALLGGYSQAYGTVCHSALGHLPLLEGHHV

PHKG1 or PHKG2 (human) = PHKG1 or PHKG2 (human) (UniProt P15735+Q16816); conditions: ATP 50 µM
PHKG1 or PHKG2 (human), sequence (P15735 whole entry, looked up): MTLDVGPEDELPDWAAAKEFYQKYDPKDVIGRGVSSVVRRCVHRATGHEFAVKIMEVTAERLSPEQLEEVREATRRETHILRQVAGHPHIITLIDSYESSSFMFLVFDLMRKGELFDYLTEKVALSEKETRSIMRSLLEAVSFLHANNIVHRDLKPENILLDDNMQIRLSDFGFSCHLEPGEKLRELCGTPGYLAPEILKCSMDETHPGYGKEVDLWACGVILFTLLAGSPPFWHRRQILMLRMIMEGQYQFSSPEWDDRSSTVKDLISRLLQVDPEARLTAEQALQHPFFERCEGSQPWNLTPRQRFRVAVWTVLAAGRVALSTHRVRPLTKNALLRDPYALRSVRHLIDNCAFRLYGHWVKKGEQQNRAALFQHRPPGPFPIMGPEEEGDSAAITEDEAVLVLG
PHKG1 or PHKG2 (human), sequence (Q16816 whole entry, looked up): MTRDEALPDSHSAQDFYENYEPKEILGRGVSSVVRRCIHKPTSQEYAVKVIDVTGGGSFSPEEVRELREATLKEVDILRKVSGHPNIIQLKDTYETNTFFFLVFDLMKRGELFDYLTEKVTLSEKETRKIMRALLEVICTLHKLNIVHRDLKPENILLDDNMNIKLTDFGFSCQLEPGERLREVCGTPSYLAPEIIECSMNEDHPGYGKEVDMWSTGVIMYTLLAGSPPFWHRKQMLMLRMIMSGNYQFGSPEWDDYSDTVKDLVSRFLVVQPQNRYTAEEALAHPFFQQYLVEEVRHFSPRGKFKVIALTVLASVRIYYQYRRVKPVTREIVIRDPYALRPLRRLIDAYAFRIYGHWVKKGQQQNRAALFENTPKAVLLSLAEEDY

MAPK14 (human) = MAPK14 (human) (UniProt Q16539); conditions: ATP 50 µM
CAMKK2 (human) = CAMKK2 (human) (UniProt Q96RR4); conditions: ATP 20 µM
[1] = tested on: AKT1 (human), P31749 [S473D]; conditions: ATP 5 µM
RPS6KA5 KD1 KD2 (human) = RPS6KA5 KD1 KD2 (human) (UniProt O75582); conditions: ATP 20 µM
MAPKAPK3 (human) = MAPKAPK3 (human) (UniProt Q16644); conditions: ATP 20 µM

CO[C@H]1CC2CC[C@@H](C)[C@@](O)(O2)C(=O)C(=O)N2CCCC[C@H]2C(=O)OC([C@H](C)C[C@@H]2CC[C@@H](O)[C@H](OC)C2)CC(=O)[C@H](C)/C=C(\C)[C@@H](O)[C@@H](OC)C(=O)[C@H](C)C[C@H](C)/C=C/C=C/C=C/1C (stereo not given in full)
residual activity (MAPK13 (human); compound 1.0 µM): 92% | residual activity (MKNK2 (human); compound 1.0 µM): 102% | residual activity (ROCK2 (human); compound 1.0 µM): 103% | residual activity (MAPKAPK5 (human); compound 1.0 µM): 91% | residual activity (MAPKAPK2 (human); compound 1.0 µM): 108% | residual activity (DYRK2 (human); compound 1.0 µM): 84% | residual activity (MELK (human); compound 1.0 µM): 74% | residual activity (CSNK1D (human); compound 1.0 µM): 88% | residual activity (RPS6KA1 KD1 KD2 (human); compound 1.0 µM): 90% | residual activity (RPS6KA3 KD1 KD2 (human); compound 1.0 µM): 97% | residual activity (MARK3 (human); compound 1.0 µM): 88% | residual activity (AURKC (human); compound 1.0 µM): 97% | residual activity (LCK (mouse); compound 1.0 µM): 79% | residual activity (DYRK1A (human); compound 1.0 µM): 91% | residual activity (PAK7 (human); compound 1.0 µM): 89% | residual activity (PRKAA1 or PRKAA2 (rat); compound 1.0 µM): 87% | residual activity (NEK7 (human); compound 1.0 µM): 102% | residual activity (MAP2K1 (human); compound 1.0 µM): 93% | residual activity (CaMK1 (human); compound 1.0 µM): 97% | residual activity (CSK (human); compound 1.0 µM): 83% | residual activity (IKBKB (human); compound 1.0 µM): 82% | residual activity (MAPK10 (human); compound 1.0 µM): 81% | residual activity (PLK1 (human); compound 1.0 µM): 78% | residual activity (PDPK1 (human); compound 1.0 µM, ATP 20 µM): 85% | residual activity (PDPK1 (human); compound 1.0 µM, ATP 50 µM): 92% | residual activity (MAPK9 (human); compound 1.0 µM): 81% | residual activity (CHEK2 (human); compound 1.0 µM): 92% | residual activity (NEK6 (human); compound 1.0 µM): 95% | residual activity (PRKCG (human); compound 1.0 µM): 92% | residual activity (PIM2 (human); compound 1.0 µM): 117% | residual activity (PAK6 (human); compound 1.0 µM): 89% | residual activity (STK3 (human); compound 1.0 µM): 90% | residual activity (PIM3 (human); compound 1.0 µM): 88% | residual activity (MAPK15 (human); compound 1.0 µM): 97% | residual activity (PHKG1 or PHKG2 (human); compound 1.0 µM): 95% | residual activity (MAPK14 (human); compound 1.0 µM): 75% | residual activity (CAMKK2 (human); compound 1.0 µM): 83% | residual activity ([1]; compound 1.0 µM): 91% | residual activity (RPS6KA5 KD1 KD2 (human); compound 1.0 µM): 86% | residual activity (MAPKAPK3 (human); compound 1.0 µM): 104%

CN[C@@H]1C[C@@H]2O[C@@](C)([C@@H]1OC)n1c3ccccc3c3c4c(c5c6ccccc6n2c5c31)C(=O)N[C@@H]4O
residual activity (MAPK13 (human); compound 0.01 µM): 94% | residual activity (MKNK2 (human); compound 0.01 µM): 103% | residual activity (ROCK2 (human); compound 0.01 µM): 86% | residual activity (MAPKAPK5 (human); compound 0.01 µM): 83% | residual activity (MAPKAPK2 (human); compound 0.01 µM): 75% | residual activity (DYRK2 (human); compound 0.01 µM): 92% | residual activity (MELK (human); compound 0.01 µM): 53% | residual activity (CSNK1D (human); compound 0.01 µM): 96% | residual activity (RPS6KA1 KD1 KD2 (human); compound 0.01 µM): 25% | residual activity (RPS6KA3 KD1 KD2 (human); compound 0.01 µM): 29% | residual activity (MARK3 (human); compound 0.01 µM): 6% | residual activity (AURKC (human); compound 0.01 µM): 71% | residual activity (LCK (mouse); compound 0.01 µM): 50% | residual activity (DYRK1A (human); compound 0.01 µM): 90% | residual activity (PAK7 (human); compound 0.01 µM): 36% | residual activity (PRKAA1 or PRKAA2 (rat); compound 0.01 µM): 9% | residual activity (NEK7 (human); compound 0.01 µM): 99% | residual activity (MAP2K1 (human); compound 0.01 µM): 75% | residual activity (CaMK1 (human); compound 0.01 µM): 86% | residual activity (CSK (human); compound 0.01 µM): 80% | residual activity (IKBKB (human); compound 0.01 µM): 86% | residual activity (MAPK10 (human); compound 0.01 µM): 107% | residual activity (PLK1 (human); compound 0.01 µM): 76% | residual activity (PDPK1 (human); compound 0.01 µM, ATP 20 µM): 2% | residual activity (PDPK1 (human); compound 0.01 µM, ATP 50 µM): 83% | residual activity (MAPK9 (human); compound 0.01 µM): 92% | residual activity (CHEK2 (human); compound 0.01 µM): 96% | residual activity (NEK6 (human); compound 0.01 µM): 104% | residual activity (PRKCG (human); compound 0.01 µM): 78% | residual activity (PIM2 (human); compound 0.01 µM): 73% | residual activity (PAK6 (human); compound 0.01 µM): 35% | residual activity (STK3 (human); compound 0.01 µM): 2% | residual activity (PIM3 (human); compound 0.01 µM): 8% | residual activity (MAPK15 (human); compound 0.01 µM): 92% | residual activity (PHKG1 or PHKG2 (human); compound 0.01 µM): 5% | residual activity (MAPK14 (human); compound 0.01 µM): 105% | residual activity (CAMKK2 (human); compound 0.01 µM): 21% | residual activity ([1]; compound 0.01 µM): 79% | residual activity (RPS6KA5 KD1 KD2 (human); compound 0.01 µM): 68% | residual activity (MAPKAPK3 (human); compound 0.01 µM): 107%
